GFP releasing effect data for five compounds are collected here from patent US20040091949A1, “Method of screening drug acting on cell wall” (priority 2000, published 2004).

Test [1] has as its system AY-2 strain (wall-type arming yeast). In words: GFP releasing effect of available antifungal agents, wall-type arming yeast. Conditions: RPMIB medium protected for osmotic pressure, supernatant fluorescence, difference from control with no agent. It counts as cell-based, S. cerevisiae. The protocol:
(§1) The cultured yeast cells in the logarithmic growth phase (AY-2 strain or AY-12 strain) were collected, and various agents were allowed to act on the yeast cells. Fluorescence intensity of the culture supernatant was measured by using Cytofluor 2300 Fluorometer (Millipore, excitation=480 nm, emission=530 nm). The fluorescence intensity under treatment with each of various agents was shown in terms of a difference in fluorescence intensity compared with that of a control in which no agent was added.
(§2) In order to ascertain whether or not the method of the present invention can be utilized for a screening of agents with a targeting site other than Kre6p, the GFP releasing effects in the AY-2 strain (wall-type arming yeast) and the AY-12 strain (membrane-type arming yeast) were compared under actions of available antifungal agents. The AY-2 strain cells and the AY-12 strain cells each cultured in a test tube were floated on a medium (RPMIB) protected for osmotic pressure, and each of the agents was allowed to act on the cells. After the culture, the fluorescence intensity of the supernatant was measured, and a difference from that of a control with no addition of the agent was calculated.

Test [2] deals with AY-12 strain (membrane-type arming yeast). In words: GFP releasing effect of available antifungal agents, membrane-type arming yeast. It counts as cell-based, S. cerevisiae. Conditions: RPMIB medium protected for osmotic pressure, supernatant fluorescence, difference from control with no agent. The protocol: as §1, §2

With `C[C@@H]1[C@H](O)[C@@H](C)/C=C/C=C/C=C/C=C/C=C/C=C/C=C/[C@H](O[C@@H]2O[C@H](C)[C@@H](O)[C@H](N)[C@@H]2O)C[C@@H]2O[C@](O)(C[C@@H](O)C[C@@H](O)[C@H](O)CC[C@@H](O)C[C@@H](O)CC(=O)O[C@H]1C)C[C@H](O)[C@H]2C(=O)O` [Amphotericin B], the GFP releasing effect entry in test [1] and in test [2] was “Slight releasing effect” each time.

As for Tunicamycin, the GFP releasing effect result was “Marked GFP releasing effect” in test [1] and “almost no releasing effect” in test [2].

With `CC[C@@H](C(=O)[C@@H](C)[C@@H](O)[C@H](C)[C@@H]1O[C@@H]([C@@H](CC)C(=O)O)CC[C@@H]1C)[C@H]1O[C@]2(C=C[C@@H](O)[C@]3(CC[C@@](C)([C@H]4CC[C@](O)(CC)[C@H](C)O4)O3)O2)[C@H](C)C[C@@H]1C` [Salinomycin], the GFP releasing effect entry in test [1] and in test [2] was “Slight releasing effect” each time.

Turning to Aculeacin A, the GFP releasing effect entry is “Marked GFP releasing effect” in test [1] and “almost no releasing effect” in test [2].

With `OC(Cn1cncn1)(Cn1cncn1)c1ccc(F)cc1F` [Fluconazole], the GFP releasing effect entry in test [1] and in test [2] was “Slight releasing effect” each time.
